{"source": "patent US9714271B2", "about": "(ContraVir Pharmaceuticals, Inc., priority 2010, dated 2017)", "origin": "cited, not measured here", "data": [{"molecular_target": "CyP-A (Homo sapiens, UniProt P62937)", "sequence (P62937 whole entry)": "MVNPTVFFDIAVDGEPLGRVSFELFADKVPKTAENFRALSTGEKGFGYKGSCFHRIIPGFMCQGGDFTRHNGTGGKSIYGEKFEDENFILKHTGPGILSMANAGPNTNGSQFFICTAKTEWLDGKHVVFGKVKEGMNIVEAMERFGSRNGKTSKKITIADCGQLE", "values": [{"smiles": "C/C=C/C[C@@H](C)[C@@H](O)[C@H]1C(=O)N[C@@H](CC)C(=O)N(C)CC(=O)N(C)[C@@H]([C@@H](C)CC)C(=O)N[C@@H](C(C)C)C(=O)N(C)[C@@H](CC(C)C)C(=O)N[C@@H](C)C(=O)N[C@H](C)C(=O)N(C)[C@@H](CC(C)C)C(=O)N(C)[C@@H](CC(C)C)C(=O)N(C)[C@@H](C(C)C)C(=O)N1C", "note": "[NIM 811, Melle^4-Cyclosporine]", "binding affinity for CyP-A": "retains binding affinity for CyP-A"}, {"smiles": "C/C=C/C[C@@H](C)[C@@H](O)[C@H]1C(=O)N[C@@H](CC)C(=O)N(C)[C@H](SCCN(C)C)C(=O)N(C)[C@@H](CC(C)(C)O)C(=O)N[C@@H](C(C)C)C(=O)N(C)[C@@H](CC(C)C)C(=O)N[C@@H](C)C(=O)N[C@H](C)C(=O)N(C)[C@@H](CC(C)C)C(=O)N(C)[C@@H](CC(C)C)C(=O)N(C)[C@@H](C(C)C)C(=O)N1C", "note": "[SCY-635, DimethylaminoethylthioSar^3-hydroxyLeu^4-Cyclosporin]", "binding affinity for CyP-A": "retains binding affinity for CyP-A"}, {"smiles": "C/C=C/C[C@@H](C)[C@@H](O)[C@H]1C(=O)N[C@@H](CC)C(=O)N(C)[C@H](C)C(=O)N(CC)[C@@H](C(C)C)C(=O)N[C@@H](C(C)C)C(=O)N(C)[C@@H](CC(C)C)C(=O)N[C@@H](C)C(=O)N[C@H](C)C(=O)N(C)[C@@H](CC(C)C)C(=O)N(C)[C@@H](CC(C)C)C(=O)N(C)[C@@H](C(C)C)C(=O)N1C", "note": "[DEBIO 025, MeAla^3EtVal^4-Cyclosporin]", "binding affinity for CyP-A": "retains binding affinity for CyP-A"}]}]}
